Results taken from patent publication US20020026051A1, “Dithiepino [6,5-b]pyridines, and related compositions and methods” (priority 1999, published 2002).

Columns and labels:
calcium channel = biological target: T1, calcium channel (Oryctolagus cuniculus, UniProt P15381); assay: Assay for Inhibition of Nitrendipine Binding (3H-nitrendipine, heart membranes); details: 3H-nitrendipine displacement, rabbit heart membranes
T1 construct: from tissue; host or cells: rabbit heart membrane preparation
Experimental: Female, New Zealand white rabbits (1-2 kg) are sacrificed by cervical dislocation, and the heart is immediately removed, cleaned and chopped into small pieces. The tissue is homogenized in 5× times volume of 0.05M Hepes buffer, pH 7.4. The homogenate is centrifuged at 4000 g for 10 minutes, and the supernatant is re-centrifuged at 42,000×g for 90 minutes. The resulting membrane pellet is resuspended (0.7 ml/g weight) in 0.05M Hepes, pH 7.4 and stored at […] until used. Each tube of the binding assay contains ^3H-nitrendipine (0.05-0.50 nM), buffer, membranes (0.10 ml), and test compound in a total volume of 1.0 ml. After 90 minutes at 4° C., the bound nitrendipine is separated from the unbound by filtration on Whatman GF/C filters. After rinsing, the filters are dried and counted in a liquid scintillation counter.
Non-specific binding of ^3H-nitrendipine (that amount bound in the presence of excess unlabelled nitrendipine) is subtracted from the total bound to obtain specifically bound radiolabeled nitrendipine. The amount of specifically bound nitrendipine in the presence of a test compound is compared to that amount bound in the absence of a compound. A percent displacement (or inhibition) can then be calculated.

trachealis muscle tissue = assay: Test for Inhibition of Calcium-Dependent Smooth Muscle Contraction (trachea); format: cell-based; details: Canis lupus familiaris; dog tracheal rings, 50 mM KCl contraction
Experimental: The trachea and the aorta from dogs sacrificed by excess KCl injection are stored overnight at 4° C. in oxygenated Krebs-Henseleit buffer. Tracheal rings, one cartilage segment wide (5-10 mm), are cut starting from the bronchial end. Rings of aorta tissue of the same width are also prepared. After cutting the cartilage, the trachealis muscle tissue and the aorta tissue are suspended in oxygenated Krebs-Henseleit buffer at 37° C. in a 25 ml tissue bath. After a 60-minute equilibration period, the tissues are challenged with 10 μM carbachol. After 5 minutes, the tissues are rinsed and allowed to rest 50 minutes. The tissues are then challenged with 50 mM KCl and, after 30 minutes, the contractions are quantitated. The tissues are then rinsed and re-equilibrated for 50 minutes. Test compounds are then added for 10 minutes, and the tissue is rechallenged with 50 mM KCl. After 30 minutes, the contraction is recorded. A percent inhibition of smooth muscle contraction can then be calculated.

T1 sequence (P15381 whole entry, other chains not shown): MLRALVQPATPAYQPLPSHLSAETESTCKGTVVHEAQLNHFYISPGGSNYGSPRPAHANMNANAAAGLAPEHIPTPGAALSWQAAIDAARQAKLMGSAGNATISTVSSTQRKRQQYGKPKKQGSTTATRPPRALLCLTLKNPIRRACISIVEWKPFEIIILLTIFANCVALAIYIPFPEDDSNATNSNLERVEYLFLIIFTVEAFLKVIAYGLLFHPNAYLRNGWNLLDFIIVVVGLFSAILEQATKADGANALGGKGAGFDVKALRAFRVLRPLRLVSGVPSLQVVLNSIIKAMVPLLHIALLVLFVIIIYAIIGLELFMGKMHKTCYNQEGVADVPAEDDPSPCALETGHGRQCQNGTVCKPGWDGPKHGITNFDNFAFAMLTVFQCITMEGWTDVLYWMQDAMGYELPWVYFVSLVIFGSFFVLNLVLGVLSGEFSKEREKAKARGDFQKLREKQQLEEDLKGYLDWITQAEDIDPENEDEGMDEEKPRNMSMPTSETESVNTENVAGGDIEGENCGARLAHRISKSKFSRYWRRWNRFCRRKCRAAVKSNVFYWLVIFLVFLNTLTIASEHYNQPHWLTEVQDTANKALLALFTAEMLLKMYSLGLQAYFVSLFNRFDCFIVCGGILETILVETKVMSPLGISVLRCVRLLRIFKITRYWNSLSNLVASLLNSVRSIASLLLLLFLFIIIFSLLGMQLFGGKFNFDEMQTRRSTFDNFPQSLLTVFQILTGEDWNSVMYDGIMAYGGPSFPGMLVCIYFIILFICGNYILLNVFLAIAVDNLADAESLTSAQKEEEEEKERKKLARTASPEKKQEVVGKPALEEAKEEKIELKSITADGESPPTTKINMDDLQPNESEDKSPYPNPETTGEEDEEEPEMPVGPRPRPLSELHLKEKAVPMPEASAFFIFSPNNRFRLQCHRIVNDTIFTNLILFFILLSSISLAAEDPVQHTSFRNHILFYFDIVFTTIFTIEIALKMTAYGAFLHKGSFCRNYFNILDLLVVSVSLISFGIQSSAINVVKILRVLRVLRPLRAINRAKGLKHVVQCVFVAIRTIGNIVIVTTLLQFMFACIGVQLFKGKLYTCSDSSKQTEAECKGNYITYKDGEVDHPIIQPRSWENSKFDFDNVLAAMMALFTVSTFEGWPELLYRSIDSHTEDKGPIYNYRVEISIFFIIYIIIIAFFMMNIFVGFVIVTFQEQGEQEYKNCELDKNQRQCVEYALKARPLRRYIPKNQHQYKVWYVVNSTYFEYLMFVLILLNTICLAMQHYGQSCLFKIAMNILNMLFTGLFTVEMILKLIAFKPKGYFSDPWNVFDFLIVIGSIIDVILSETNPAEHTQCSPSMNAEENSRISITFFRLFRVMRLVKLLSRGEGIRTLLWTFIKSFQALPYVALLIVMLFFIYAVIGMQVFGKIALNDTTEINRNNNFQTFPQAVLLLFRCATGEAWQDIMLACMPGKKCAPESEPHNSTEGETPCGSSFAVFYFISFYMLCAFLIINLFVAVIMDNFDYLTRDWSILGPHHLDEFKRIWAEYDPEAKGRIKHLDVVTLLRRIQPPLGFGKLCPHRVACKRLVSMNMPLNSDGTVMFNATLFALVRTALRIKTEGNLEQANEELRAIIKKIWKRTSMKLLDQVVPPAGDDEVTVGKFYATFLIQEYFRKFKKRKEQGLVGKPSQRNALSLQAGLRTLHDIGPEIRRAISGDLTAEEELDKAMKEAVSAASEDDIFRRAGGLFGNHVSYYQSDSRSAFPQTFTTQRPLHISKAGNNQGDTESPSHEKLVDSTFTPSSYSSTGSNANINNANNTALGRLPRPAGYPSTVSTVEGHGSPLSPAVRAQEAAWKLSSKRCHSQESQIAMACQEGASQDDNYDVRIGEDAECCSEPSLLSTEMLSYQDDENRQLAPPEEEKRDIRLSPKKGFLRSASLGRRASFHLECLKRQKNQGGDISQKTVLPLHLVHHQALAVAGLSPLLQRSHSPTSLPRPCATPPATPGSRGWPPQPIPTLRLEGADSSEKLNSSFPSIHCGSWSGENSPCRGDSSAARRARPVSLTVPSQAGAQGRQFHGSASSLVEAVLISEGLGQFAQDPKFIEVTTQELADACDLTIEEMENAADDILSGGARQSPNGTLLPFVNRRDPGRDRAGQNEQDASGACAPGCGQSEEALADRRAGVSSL
T1 sequence (P13806 27-960 partner limits assumed, other chains not shown): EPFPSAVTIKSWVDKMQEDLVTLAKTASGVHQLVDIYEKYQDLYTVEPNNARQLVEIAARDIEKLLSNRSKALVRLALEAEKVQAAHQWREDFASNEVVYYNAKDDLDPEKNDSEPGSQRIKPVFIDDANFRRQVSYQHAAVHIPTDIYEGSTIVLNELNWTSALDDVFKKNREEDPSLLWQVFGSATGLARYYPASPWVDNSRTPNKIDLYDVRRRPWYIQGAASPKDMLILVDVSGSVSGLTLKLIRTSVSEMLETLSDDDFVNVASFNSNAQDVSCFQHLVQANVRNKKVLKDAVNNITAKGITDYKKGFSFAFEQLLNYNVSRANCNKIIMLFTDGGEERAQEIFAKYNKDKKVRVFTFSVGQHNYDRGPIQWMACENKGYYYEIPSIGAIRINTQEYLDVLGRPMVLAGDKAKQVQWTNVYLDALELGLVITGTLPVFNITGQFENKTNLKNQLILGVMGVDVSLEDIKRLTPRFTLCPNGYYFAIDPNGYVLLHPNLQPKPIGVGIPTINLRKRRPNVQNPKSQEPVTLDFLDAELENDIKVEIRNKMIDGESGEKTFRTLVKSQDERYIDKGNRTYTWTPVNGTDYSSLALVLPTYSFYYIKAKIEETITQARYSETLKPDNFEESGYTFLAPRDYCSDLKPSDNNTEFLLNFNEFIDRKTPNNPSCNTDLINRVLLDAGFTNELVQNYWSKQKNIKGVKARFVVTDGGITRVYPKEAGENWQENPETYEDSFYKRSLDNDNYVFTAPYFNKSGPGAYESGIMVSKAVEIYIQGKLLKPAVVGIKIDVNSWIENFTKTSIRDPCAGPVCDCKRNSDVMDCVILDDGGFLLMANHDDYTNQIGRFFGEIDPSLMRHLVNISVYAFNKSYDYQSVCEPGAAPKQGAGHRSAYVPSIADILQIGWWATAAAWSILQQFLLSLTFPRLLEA
T1 sequence (P13806 961-1106 partner limits assumed, other chains not shown): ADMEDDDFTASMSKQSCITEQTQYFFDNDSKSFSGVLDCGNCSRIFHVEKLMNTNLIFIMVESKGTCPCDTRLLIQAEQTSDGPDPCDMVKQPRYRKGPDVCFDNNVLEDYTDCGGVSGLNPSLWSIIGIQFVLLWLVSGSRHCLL

| Compound | IC50 (calcium channel; Tables 1-5) [nM] | IC50 (trachealis muscle tissue) [nM] | IC50 (calcium channel; Tables 6-7) [nM] |
| --- | --- | --- | --- |
| CC1=C(C(=O)OCCN(C)Cc2ccccc2)C(c2c(F)cccc2Cl)C2=C(CS(=O)(=O)CCS2(=O)=O)N1 (stereo not shown) [Compound 1, 5H-1,4-Dithiepino[6,5-b]pyridine-8-carboxylic acid, 9-(2-chloro-6-fluorophenyl)-2,3,6,9-tetrahydro-7-methyl-2-[methyl(phenylmethyl)amino]ethyl ester 1,1,4,4-tetraoxide] | 74 | 650 |  |
| CC1=C(C(=O)OCCN(C)Cc2ccccc2)C(c2c(F)c(F)c(F)c(F)c2F)C2=C(CS(=O)(=O)CCCS2(=O)=O)N1 (stereo not shown) [Compound 27, 2H,6H-1,5-Dithiocino[3,2-b]pyridine-9-carboxylic acid, 3,4,7,10-tetrahydro-8-methyl-10-(pentafluorophenyl)-2-[methyl(phenylmethyl)amino]ethyl ester 1,1,5,5-tetraoxide] | 49 | 6200 |  |
| CC1=C(C(=O)OCCN(C)Cc2ccccc2)[C@@H](c2c(F)cccc2Cl)C2=C(CS(=O)(=O)CCS2(=O)=O)N1 (single isomer, unassigned) [Compound 2, 5H-1,4-Dithiepino[6,5-b]pyridine-8-carboxylic acid, 9-(2-chloro-6-fluorophenyl)-2,3,6,9-tetrahydro-7-methyl-2-[methyl(phenylmethyl)amino]ethyl ester 1,1,4,4-tetraoxide] | 43 | 660 |  |
| COC(=O)C1=C(C)NC2=C(C1c1c(F)c(F)c(F)c(F)c1F)S(=O)(=O)CCS(=O)(=O)C2 (stereo not shown) [Compound 13, 5H-1,4-Dithiepino[6,5-b]pyridine-8-carboxylic acid, 2,3,6,9-tetrahydro-7-methyl-9-(pentafluorophenyl)-methyl ester 1,1,4,4-tetraoxide] | 27 |  |  |
| CC1=C(C(=O)OCCOC(=O)C2CCCCC2)C(c2c(F)cccc2Cl)C2=C(CS(=O)(=O)CCS2(=O)=O)N1 (stereo not shown) [Compound 55] |  |  | 100 |
| CC1=C(C(=O)OCCN(C)Cc2ccccc2)C(c2cccc(C(F)(F)F)c2F)C2=C(CS(=O)(=O)CCCS2(=O)=O)N1 (stereo not shown) [Compound 28, 2H,6H-1,5-Dithiocino[3,2-b]pyridine-9-carboxylic acid, 10-[2-fluoro-3-(trifluoromethyl)phenyl]-3,4,7,10-tetrahydro-8-methyl-2-[methyl(phenylmethyl)amino]ethyl ester 1,1,5,5-tetraoxide] | 53 |  |  |
| COC(=O)C1=C(C)NC2=C(C1c1cccc(C(F)(F)F)c1F)S(=O)(=O)CCS(=O)(=O)C2 (stereo not shown) [Compound 17, 5H-1,4-Dithiepino[6,5-b]pyridine-8-carboxylic acid, 9-[2-fluoro-3-(trifluoromethyl)phenyl]-2,3,6,9-tetrahydro-7-methyl-methyl ester 1,1,4,4-tetraoxide] | 20 |  |  |
| CC1=C(C(=O)OCCOC(=O)C2CCCCCC2)C(c2c(F)cccc2Cl)C2=C(CS(=O)(=O)CCS2(=O)=O)N1 (stereo not shown) [Compound 39, 5H-[1,4]dithiepino[6,5-b]pyridine-8-carboxylic acid, 9-(2-chloro-6-fluorophenyl)-2,3,6,9-tetrahydro-7-methyl-, 2-[(cycloheptylcarbonyl)oxy]ethyl ester, 1,1,4,4-tetraoxide] |  |  | 38 |
| CC1=C(C(=O)OCCN)C(c2c(F)cccc2Cl)C2=C(CS(=O)(=O)CCS2(=O)=O)N1 (stereo not shown) [Compound 91] |  |  | 4840 |
| CC1=C(C(=O)OCCN(C)Cc2ccccc2)C(c2ccccc2Cl)C2=C(CS(=O)(=O)CCCS2(=O)=O)N1 (stereo not shown) [Compound 29, 2H,6H-1,5-Dithiocino[3,2-b]pyridine-9-carboxylic acid, 10-(2-chlorophenyl)-3,4,7,10-tetrahydro-8-methyl-2-[methyl(phenylmethyl)amino]ethyl ester 1,1,5,5-tetraoxide] | 57 |  |  |
